What was measured:
Format in all cases: physicochemical
[1] = Flowability of amino acid derivative powders in unconfined state (rotating drum, mass flow through a funnel, angle of repose); settings: powder, tests without confinement
Method: (§1) The flowability of 15 samples of amino acid powders was tested. The flowability of each powder in unconfined state was assessed by powder flow analysis in a rotating drum (“revolution analyzer”), by testing mass flow through a funnel, and by determining the angle of repose. The latter two measurements were performed according to chapter 1174 of the U.S. Pharmacopeia. The flowability of the samples at a confided state was analyzed by measurements with an annular shear cell and by using the Evolution Powder Tester device by PS Prozesstechnik GmbH, Basel. In these tests, the samples were initially densified with different pre-consolidation forces.

[2] = Concentration in saturated dimethyl formamide solution by analytical RP-UHPLC; settings: room temperature
Method: The concentration of the same amino acids in saturated solutions of dimethyl formamide at room temperature was determined by analytical reversed phase ultrahigh pressure liquid chromatography. The values ranged from below 200 mg/ml for Fmoc-Pro-OH over around 400 mg/ml for Fmoc-Ala-OH to above 600 mg/ml for Fmoc-Gly-OH.

[3] = Flowability of amino acid derivative powders in confined state (annular shear cell, Evolution Powder Tester, pre-consolidation); settings: tests with confinement, densified with pre-consolidation forces
Method: as §1

Row | flowability [1] | concentration in saturated solution [2] | flowability [3] | SMILES
1 | poor flowability parameters | around 400 mg/ml | Medium values | C[C@H](NC(=O)OCC1c2ccccc2-c2ccccc21)C(=O)O [Fmoc-Ala-OH]
2 | good | above 600 mg/ml | poor flowability | O=C(O)CNC(=O)OCC1c2ccccc2-c2ccccc21 [Fmoc-Gly-OH]
3 | good flowability | – | – | CSCC[C@H](NC(=O)OCC1c2ccccc2-c2ccccc21)C(=O)O [Fmoc-Met-OH]

Further lines, the compound ahead of its results:

Row | SMILES | flowability [1] | concentration in saturated solution [2] | flowability [3]
4 | O=C(N[C@@H](CSC(c1ccccc1)(c1ccccc1)c1ccccc1)C(=O)O)OCC1c2ccccc2-c2ccccc21 [Fmoc-Cys(Trt)-OH] | good flowability | – | good flowability
5 | CC(C)(C)OC(=O)NCCCC[C@H](NC(=O)OCC1c2ccccc2-c2ccccc21)C(=O)O [Fmoc-Lys(Boc)-OH] | – | – | poor flowability
6 | O=C(O)[C@@H]1CCCN1C(=O)OCC1c2ccccc2-c2ccccc21 [Fmoc-Pro-OH] | poor flowability parameters | below 200 mg/ml | good flowability

From US20220387958A1, “APPARATUS AND METHOD FOR ITERATIVE POLYMER SYNTHESIS” (BACHEM AG, priority 2019, published 2022)
